From ChEMBL document CHEMBL1150243, “Lignan glycosides from Neoalsomitra integrifoliola” (2008) come the findings set out here.

The nature of this assay: Antiinflammatory activity against rat polymorphonuclear leucocytes assessed as inhibition of platelet activating factor-induced beta-glucuronidase release. It counts as functional.

As for `C[C@@H]1C(=O)O[C@H]2[C@H](O)[C@@]34[C@H]5C[C@@H](C(C)(C)C)[C@]36[C@@H](OC(=O)[C@@H]6O)O[C@@]4(C(=O)O5)[C@@]12O` [GINKOLIDE B], the “inhibition (INH)” value came out at 78.4%.
